Test results from ChEMBL document CHEMBL3861943 (Medchemcomm, 2016).
Each block holds one compound with its values, some of them ahead of it.

What was measured:
[1] = Cytotoxicity against human BxPC3 cells assessed as decrease in cell proliferation after 72 hrs by MTT reduction assay; format: functional, cell-based; settings: BXPC-3, 72 h
[2] = Cytotoxicity against human WI38 cells assessed as decrease in cell proliferation after 72 hrs by MTT reduction assay; format: toxicity, cell-based, WI-38
[3] = Cytotoxicity against human HCT116 cells assessed as decrease in cell proliferation after 72 hrs by MTT reduction assay; format: functional, cell-based; settings: HCT-116, 72 h
[4] = biological target: Dihydroorotate dehydrogenase (quinone), mitochondrial (Homo sapiens, UniProt Q02127); assay: Inhibition of recombinant human DHODH by DCIP-based assay; format: single protein
Sequence of Dihydroorotate dehydrogenase (quinone), mitochondrial (Q02127 whole entry): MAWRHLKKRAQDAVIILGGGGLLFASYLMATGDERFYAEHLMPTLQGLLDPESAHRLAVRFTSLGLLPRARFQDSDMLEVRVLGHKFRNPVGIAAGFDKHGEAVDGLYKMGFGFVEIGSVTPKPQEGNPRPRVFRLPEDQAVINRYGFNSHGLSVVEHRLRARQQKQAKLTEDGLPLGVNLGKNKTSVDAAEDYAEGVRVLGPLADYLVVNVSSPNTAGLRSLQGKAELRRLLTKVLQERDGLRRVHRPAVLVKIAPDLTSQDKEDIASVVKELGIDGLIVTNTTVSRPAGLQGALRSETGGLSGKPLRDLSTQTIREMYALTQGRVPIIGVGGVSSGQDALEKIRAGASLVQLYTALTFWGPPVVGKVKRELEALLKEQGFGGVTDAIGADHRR

HCT-116 [5] = assay: Induction of apoptosis in human HCT116 cells assessed as early apoptotic cells at 0.2 uM after 36 hrs by annexin V-FITC/propidium iodide staining-based flow cytometric method (reference value: 2.25%); format: functional
HCT-116 [6] = assay: Induction of apoptosis in human HCT116 cells assessed as necrotic cells at 0.2 uM after 48 hrs by annexin V-FITC/propidium iodide staining-based flow cytometric method (reference value: 2.14%); format: functional
HCT-116 [7] = assay: Induction of apoptosis in human HCT116 cells assessed as viable cells at 0.2 uM after 24 hrs by annexin V-FITC/propidium iodide staining-based flow cytometric method (reference value: 91.8%); format: functional; settings: HCT-116, 24 h, read-out: Activity
BXPC-3 [8] = assay: Induction of apoptosis in human BxPC3 cells assessed as early apoptotic cells at 0.2 uM after 24 hrs by annexin V-FITC/propidium iodide staining-based flow cytometric method (reference value: 0.344%); format: functional
HCT-116 [9] = assay: Induction of apoptosis in human HCT116 cells assessed as early apoptotic cells at 0.2 uM after 24 hrs by annexin V-FITC/propidium iodide staining-based flow cytometric method (reference value: 2.25%); format: functional
BXPC-3 [10] = assay: Induction of apoptosis in human BxPC3 cells assessed as late apoptotic cells at 0.2 uM after 36 hrs by annexin V-FITC/propidium iodide staining-based flow cytometric method (reference value: 6.73%); format: functional
BXPC-3 [11] = assay: Induction of apoptosis in human BxPC3 cells assessed as viable cells at 0.2 uM after 36 hrs by annexin V-FITC/propidium iodide staining-based flow cytometric method (reference value: 91.8%); format: functional; settings: BXPC-3, 36 h, read-out: Activity
HCT-116 [12] = assay: Induction of apoptosis in human HCT116 cells assessed as late apoptotic cells at 0.2 uM after 24 hrs by annexin V-FITC/propidium iodide staining-based flow cytometric method (reference value: 3.84%); format: functional
HCT-116 [13] = assay: Induction of apoptosis in human HCT116 cells assessed as viable cells at 0.2 uM after 36 hrs by annexin V-FITC/propidium iodide staining-based flow cytometric method (reference value: 91.8%); format: functional; settings: HCT-116, 36 h, read-out: Activity
BXPC-3 [14] = assay: Induction of apoptosis in human BxPC3 cells assessed as early apoptotic cells at 0.2 uM after 48 hrs by annexin V-FITC/propidium iodide staining-based flow cytometric method (reference value: 0.344%); format: functional
BXPC-3 [15] = assay: Induction of apoptosis in human BxPC3 cells assessed as necrotic cells at 0.2 uM after 36 hrs by annexin V-FITC/propidium iodide staining-based flow cytometric method (reference value: 1.15%); format: functional
HCT-116 [16] = assay: Induction of apoptosis in human HCT116 cells assessed as late apoptotic cells at 0.2 uM after 48 hrs by annexin V-FITC/propidium iodide staining-based flow cytometric method (reference value: 3.84%); format: functional
BXPC-3 [17] = assay: Induction of apoptosis in human BxPC3 cells assessed as late apoptotic cells at 0.2 uM after 48 hrs by annexin V-FITC/propidium iodide staining-based flow cytometric method (reference value: 6.73%); format: functional
BXPC-3 [18] = assay: Induction of apoptosis in human BxPC3 cells assessed as late apoptotic cells at 0.2 uM after 24 hrs by annexin V-FITC/propidium iodide staining-based flow cytometric method (reference value: 6.73%); format: functional
HCT-116 [19] = assay: Induction of apoptosis in human HCT116 cells assessed as viable cells at 0.2 uM after 48 hrs by annexin V-FITC/propidium iodide staining-based flow cytometric method (reference value: 91.8%); format: functional; settings: HCT-116, 48 h, read-out: Activity
HCT-116 [20] = assay: Induction of apoptosis in human HCT116 cells assessed as necrotic cells at 0.2 uM after 24 hrs by annexin V-FITC/propidium iodide staining-based flow cytometric method (reference value: 2.14%); format: functional
BXPC-3 [21] = assay: Induction of apoptosis in human BxPC3 cells assessed as viable cells at 0.2 uM after 48 hrs by annexin V-FITC/propidium iodide staining-based flow cytometric method (reference value: 91.8%); format: functional; settings: BXPC-3, 48 h, read-out: Activity
BXPC-3 [22] = assay: Induction of apoptosis in human BxPC3 cells assessed as viable cells at 0.2 uM after 24 hrs by annexin V-FITC/propidium iodide staining-based flow cytometric method (reference value: 91.8%); format: functional; settings: BXPC-3, 24 h, read-out: Activity
HCT-116 [23] = assay: Induction of apoptosis in human HCT116 cells assessed as necrotic cells at 0.2 uM after 36 hrs by annexin V-FITC/propidium iodide staining-based flow cytometric method (reference value: 2.14%); format: functional
BXPC-3 [24] = assay: Induction of apoptosis in human BxPC3 cells assessed as early apoptotic cells at 0.2 uM after 36 hrs by annexin V-FITC/propidium iodide staining-based flow cytometric method (reference value: 0.344%); format: functional
HCT-116 [25] = assay: Induction of apoptosis in human HCT116 cells assessed as early apoptotic cells at 0.2 uM after 48 hrs by annexin V-FITC/propidium iodide staining-based flow cytometric method (reference value: 2.25%); format: functional
BXPC-3 [26] = assay: Induction of apoptosis in human BxPC3 cells assessed as necrotic cells at 0.2 uM after 24 hrs by annexin V-FITC/propidium iodide staining-based flow cytometric method (reference value: 1.15%); format: functional
BXPC-3 [27] = assay: Induction of apoptosis in human BxPC3 cells assessed as necrotic cells at 0.2 uM after 48 hrs by annexin V-FITC/propidium iodide staining-based flow cytometric method (reference value: 1.15%); format: functional
HCT-116 [28] = assay: Induction of apoptosis in human HCT116 cells assessed as late apoptotic cells at 0.2 uM after 36 hrs by annexin V-FITC/propidium iodide staining-based flow cytometric method (reference value: 3.84%); format: functional

Compound: CN(/N=C/c1ccc(C(F)(F)F)cc1C(=O)O)c1nc(-c2ccccc2Cl)cs1
IC50 [1]: 2.98 µM
IC50 at 72 h [2]: 60.9 µM
IC50 [3]: 2 µM

Compound: Cc1sc(N/N=C/c2ccccc2C(=O)O)nc1-c1ccccc1
IC50 [1]: 19.8 µM
IC50 at 72 h [2]: 21.5 µM
IC50 [3]: 6.42 µM

IC50 [4]: 0.029 µM
Compound: O=C(O)c1ccccc1/C=N/Nc1nc(-c2ccccc2Cl)cs1
IC50 [1]: 3.41 µM
IC50 at 72 h [2]: 39.1 µM
IC50 [3]: 0.713 µM

Compound: Cc1sc(N/N=C/c2ccccc2C(=O)O)nc1-c1ccccc1Cl
IC50 [1]: 2.97 µM
IC50 at 72 h [2]: 44.6 µM
IC50 [3]: 0.375 µM

Compound: CCCC(C)N(/N=C/c1ccccc1C(=O)O)c1nc(-c2ccccc2Cl)cs1 (centres undefined)
IC50 [1]: 0.988 µM
IC50 at 72 h [2]: 29.1 µM
IC50 [3]: 0.588 µM

IC50 [4]: 0.002 µM
Compound: CN(/N=C/c1ccc(F)cc1C(=O)O)c1nc(-c2ccccc2Cl)cs1
Activity (HCT-116 [5]): 4.54%
Activity (HCT-116 [6]): 1.67%
IC50 [1]: 0.088 µM
viability at 0.2 µM (HCT-116 [7]): 92%
Activity (BXPC-3 [8]): 1.01%
Activity (HCT-116 [9]): 3.11%
Activity (BXPC-3 [10]): 52.6%
viability at 0.2 µM (BXPC-3 [11]): 39.3%
Activity (HCT-116 [12]): 3.11%
viability at 0.2 µM (HCT-116 [13]): 86.5%
Activity (BXPC-3 [14]): 0.392%
Activity (BXPC-3 [15]): 7.38%
Activity (HCT-116 [16]): 25.4%
Activity (BXPC-3 [17]): 93.2%
Activity (BXPC-3 [18]): 15.4%
viability at 0.2 µM (HCT-116 [19]): 68.3%
Activity (HCT-116 [20]): 1.78%
IC50 at 72 h [2]: 29.7 µM
viability at 0.2 µM (BXPC-3 [21]): 4.8%
viability at 0.2 µM (BXPC-3 [22]): 80.4%
Activity (HCT-116 [23]): 1.46%
Activity (BXPC-3 [24]): 0.701%
Activity (HCT-116 [25]): 4.59%
Activity (BXPC-3 [26]): 3.23%
IC50 [3]: 0.023 µM
Activity (BXPC-3 [27]): 1.59%
Activity (HCT-116 [28]): 7.5%

Compound: CCCC(C)N(/N=C/c1ccccc1C(=O)O)c1nc(-c2ccccc2Cl)c(C)s1 (centres undefined)
IC50 [1]: 0.801 µM
IC50 at 72 h [2]: 10.1 µM
IC50 [3]: 0.181 µM

Compound: Cc1ccc(/C=N/N(C)c2nc(-c3ccccc3)c(C)s2)c(C(=O)O)c1
IC50 [1]: 0.3 µM
IC50 at 72 h [2]: 41.8 µM
IC50 [3]: 0.087 µM

IC50 [4]: 0.139 µM
Compound: O=C(O)c1ccccc1/C=N/Nc1nc(-c2ccccc2)cs1
IC50 [1]: 18.9 µM
IC50 at 72 h [2]: 34.2 µM
IC50 [3]: 0.88 µM

Compound: CN(/N=C/c1ccccc1C(=O)O)c1nc(-c2cc(Cl)ccc2Cl)cs1
IC50 [1]: 1.61 µM
IC50 at 72 h [2]: 61 µM
IC50 [3]: 0.301 µM

Compound: CCc1sc(N/N=C/c2ccccc2C(=O)O)nc1-c1ccccc1Cl
IC50 [1]: 2.79 µM
IC50 at 72 h [2]: 22.4 µM
IC50 [3]: 0.922 µM

IC50 [4]: 0.008 µM
Compound: CN(/N=C/c1ccccc1C(=O)O)c1nc(-c2ccccc2Cl)cs1
IC50 [1]: 0.08 µM
IC50 at 72 h [2]: 9.58 µM
IC50 [3]: 0.031 µM

Compound: Cc1c(-c2ccc(-c3ccccc3F)cc2)nc2ccc(F)cc2c1C(=O)O [BREQUINAR SODIUM]
IC50 [1]: 0.94 µM
IC50 at 72 h [2]: 34 µM
IC50 [3]: 0.158 µM

IC50 [4]: 0.008 µM
Compound: Cc1ccc(/C=N/N(C)c2nc(-c3ccccc3Cl)cs2)c(C(=O)O)c1
IC50 [1]: 0.203 µM
IC50 at 72 h [2]: 17 µM
IC50 [3]: 0.054 µM

IC50 [4]: 0.024 µM
Compound: CCC(C)N(/N=C/c1ccccc1C(=O)O)c1nc(-c2ccccc2Cl)cs1 (centres undefined)
IC50 [1]: 0.536 µM
IC50 at 72 h [2]: 8.3 µM
IC50 [3]: 0.244 µM

IC50 [4]: 0.059 µM
Compound: CCN(/N=C/c1ccccc1C(=O)O)c1nc(-c2ccccc2Cl)cs1
IC50 [1]: 0.199 µM
IC50 at 72 h [2]: 9.98 µM
IC50 [3]: 0.299 µM

IC50 [4]: 0.009 µM
Compound: CCCN(/N=C/c1ccccc1C(=O)O)c1nc(-c2ccccc2Cl)cs1
IC50 [1]: 0.263 µM
IC50 at 72 h [2]: 10.8 µM
IC50 [3]: 0.276 µM

IC50 [4]: 0.093 µM
Compound: CC(C)N(/N=C/c1ccccc1C(=O)O)c1nc(-c2ccccc2Cl)cs1
IC50 [1]: 0.312 µM
IC50 at 72 h [2]: 18.8 µM
IC50 [3]: 0.108 µM

IC50 [4]: 0.425 µM
Compound: O=C(O)c1ccccc1/C=N/N(CCO)c1nc(-c2ccccc2Cl)cs1
IC50 [1]: 4.32 µM
IC50 at 72 h [2]: 48.7 µM
IC50 [3]: 0.763 µM

Compound: CN(/N=C/c1ccccc1C(=O)O)c1nc(-c2cccc(Cl)c2)cs1
IC50 [1]: 1.59 µM
IC50 at 72 h [2]: 6.57 µM
IC50 [3]: 0.268 µM
